According to patent US20140011755A1, “Cardiac Glycosides for Treating Autoimmune Disease” (Department of Veterans Affairs, priority 2010, published 2014):

Legend:
[1] = cited from earlier work; for Half-life: in vivo
[2] = system: collagen-induced arthritis (CIA); type: in vivo, DBA1/J mice; conditions: first dose one day prior to boost; 0.3 mg/kg digitoxin, 0.03 mg/kg ouabain, […] proscillaridin, 0.35 mg/kg digoxin, […] bufalin; 15 mice per group
TNF, IL-6 and IL-1beta = assay: Serum cytokine ELISA in CIA treatment groups; type: in vivo; conditions: serum from 3 mice per treatment group, ELISA in triplicate
Excerpt: FIG. 9. Serum cytokine levels are similar between vehicle and cardiac glycoside treatment groups. […] The unpaired student t-test was used to assess significance.

[3] = system: TNF-mediated NFκB activity in HeLa cells; assay: NFκB luciferase reporter assay in TNF-stimulated HeLa cells; type: cell-based; conditions: pre-treatment 6 hours with 0-500 nM, 50 ng/mL TNF
Procedure: FIG. 8. […] Values represent mean light units produced. Error bars represent SEM, and statistical significance was determined by unpaired T-test. Single and double asterisks represent P-values of 0.01 or 0.001, respectively. […] Samples were harvested at designated time points and were fractionated into nuclear and cytoplasmic lysates (Pierce). Lysates were quantified using BCA (Pierce), and were equally loaded according to total protein. Membranes were probed for levels of nuclear phospho-p65 (ReIA), phospho-ReIB, and histone (histone served as loading control and fractionation method control) and cytoplasmic degradation of IκBα (beta-tubulin served as loading control and fractionation method control).
HeLa cells were co-transfected with the reporter pNFκB-luc and control vector pTAL (Renilla) for 18 h prior to incubation with 0-500 nM cardiac glycoside for 6 h. Cells are stimulated with 50 ng/mL TNF. […] FIG. 8 B).

T cell receptor = type: cell-based, mice
Procedure: Activity was monitored by ^3H-thymidine incorporation as a read-out for proliferation. […] Cell type(s) in the splenocyte population responsive to therapeutic concentrations of cardiac glycoside were determined by identifying the population of cells that responded to a dose-dependent decrease in activity in the presence of stimulant, defined as ligand(s) binding to cognate receptor(s). Activity was analyzed by: ^3H-thymidine or BrdU incorporation to monitor proliferation or by ELISA to monitor cytokine production. Splenic T lymphocytes were isolated by negative selection (MACS, Miltinyi Biotec) and are stimulated with PMA, ConA or through the TCR with anti-CD3/anti-CD28 Dynabeads (Invitrogen) and collagen II (all non-TNFR receptors/pathways). […] Peritoneal and bone marrow-derived macrophages were isolated from CIA mice in the presence of M-CSF growth factor and were stimulated with TNF and CD40 ligand (CD40L). […] Splenic B lymphocytes were isolated by negative selection (MACS, Miltinyi Biotec) and were stimulated with BAFF (BLyS), CD40L or through the BCR with anti-IgM u-chain specific antibodies.

[4] = CHCI3/16% aqueous methanol (MeOH); cited from earlier work
rheumatoid arthritis = conditions: cited from earlier work
MRL-Ipr splenic B cells = assay: ANA production by MRL-Ipr splenic B cells in vitro; type: cell-based, mice; conditions: B cells pre-treated with 0.8 nM mifepristone, digitoxin 33 nM

SMILES	Half-life [1] [h]	average clinical arthritis scores compared to vehicle, prevention study [2]	Serum cytokine levels (TNF, IL-6 and IL-1beta) versus vehicle (TNF, IL-6 and IL-1beta)	TNF-mediated NFκB activation (luciferase light units) [3]	Partition Coefficient [4]	further results
C[C@H]1O[C@@H](O[C@H]2CC[C@@]3(C)[C@H](CC[C@@H]4[C@@H]3C[C@@H](O)[C@]3(C)[C@@H](C5=CC(=O)OC5)CC[C@]43O)C2)C[C@H](O)[C@@H]1O[C@H]1C[C@H](O)[C@H](O[C@H]2C[C@H](O)[C@H](O[C@@H]3O[C@H](CO)[C@@H](O)[C@H](O)[C@H]3O)[C@@H](C)O2)[C@@H](C)O1 [Deslanoside]	33	–	–	–	–	Onset (m) ([1]; onset of action): 10-30 m; Peak ([1]; time to maximal effect): 1 to 2 h
C[C@H]1O[C@@H](O[C@H]2[C@@H](O)C[C@H](O[C@H]3[C@@H](O)C[C@H](O[C@H]4CC[C@@]5(C)[C@H](CC[C@@H]6[C@@H]5C[C@@H](O)[C@]5(C)[C@@H](C7=CC(=O)OC7)CC[C@]65O)C4)O[C@@H]3C)O[C@@H]2C)C[C@H](O)[C@@H]1O [Digoxin, digoxin]	36	significantly reduced	similar	reduced TNF-mediated NFκB activation in a dose-dependent fashion	81.5	proliferation of T cells in response to stimulation through the T cell receptor (T cell receptor): did not alter proliferation
CC(=O)O[C@H]1C[C@H](O[C@H]2[C@@H](O)C[C@H](O[C@H]3[C@@H](O)C[C@H](O[C@H]4CC[C@@]5(C)[C@H](CC[C@@H]6[C@@H]5C[C@@H](O)[C@]5(C)[C@@H](C7=CC(=O)OC7)CC[C@]65O)C4)O[C@@H]3C)O[C@@H]2C)O[C@H](C)[C@H]1O[C@@H]1O[C@H](CO)[C@@H](O)[C@H](O)[C@H]1O [Lanatoside C]	–	–	–	–	16.2	–
CN(Cc1cnc2nc(N)nc(N)c2n1)c1ccc(C(=O)N[C@@H](CCC(=O)O)C(=O)O)cc1 [Methotrexate]	–	–	–	–	–	patients having some response (rheumatoid arthritis): 70%; onset of action (rheumatoid arthritis; rheumatoid arthritis patients): 4-6 weeks
C[C@]12CC[C@H](O)C[C@H]1CC[C@@H]1[C@@H]2CC[C@]2(C)[C@@H](c3ccc(=O)oc3)CC[C@]12O [bufalin]	–	significantly reduced	similar	reduced TNF-mediated NFκB activation in a dose-dependent fashion	–	–
CC#C[C@]1(O)CC[C@H]2[C@@H]3CCC4=CC(=O)CCC4=C3[C@@H](c3ccc(N(C)C)cc3)C[C@@]21C [mifepristone]	–	–	–	–	–	effect of pre-treatment on digitoxin-specific blockade of autoantibody production (MRL-Ipr splenic B cells): relieved
